In data set [1] the test system is HCT116 colorectal cancer cells. Nature of the data set: Cisplatin Sensitization Assay, 96 h cell viability (MTS) assay. Format: cell-based. To be noted: concentration of compound required to reduce the IC50 of Cisplatin alone by at least 3-fold; HCT116, 96 h MTS. How it is done: Compounds can be screened for their ability to sensitize HCT116 colorectal cancer cells to Cisplatin using a 96 h cell viability (MTS) assay. […] Compounds and Cisplatin are then both added simultaneously to the cell media in 2-fold serial dilutions from a top final concentration of 10 μM as a full matrix of concentrations in a final cell volume of 200 μl, and the cells are then incubated at 37° C. in 5% CO2. After 96 h, 40 μl of MTS reagent (Promega G358a) is added to each well and the cells are incubated for 1 h at 37° C. in 5% CO2. Finally, absorbance is measured at 490 nm using a SpectraMax Plus 384 reader (Molecular Devices) and the concentration of compound required to reduce the IC50 of Cisplatin alone by at least 3-fold (to 1 decimal place) can be reported.

A short description of data set [2]: Pharmacokinetics, noncompartmental parameters following intravenous (IV) dosing. To be noted: in vivo. How it is done: Noncompartmental pharmacokinetic parameters were analyzed using Watson Bioanalytical LIMS (Version 7.4; Thermo Fisher Scientific) from either the blood or plasma samples. The following parameters were estimated following intravenous (IV) dosing; terminal elimination half-life (T1/2=ln(2)/λz, where λz is the first order rate constant associated with the terminal (log-linear) portion of the curve.
The area under the curve (AUClast=area under the curve from the time of dosing to the last measurable concentration). The area under the curve extrapolated to infinity (AUC0-∞=AUClast+Clast/λz). The clearance (Cl; Cl=DoseIV/AUC0-∞). The area under the first moment curve (AUMClast=area under the concentration times time versus time curve from the time of dosing to the last measurable concentration). The area under the first moment curve extrapolated to infinity (AUMC0-∞=AUMClast+Clast×t/λz+Clast/λz^2). The mean residence time (MRT=AUMC0-∞/AUC0-∞) and the steady state volume of distribution (Vdss=MRT×Cl).
Clearance and volume of distribution can also be obtained using methods known to one of skill in the art (see e.g., Handbook of Essential Pharmacokinetics, Pharmacodynamics and Drug Metabolism for Industrial Scientists, Younggil Kwon, pp 18-28 (Non-compartmental Approach)).

In data set [3] the target is intracellular ATR (Homo sapiens (Human), UniProt Q13535). Nature of the data set: Cellular ATR Inhibition Assay (phosphorylation of histone H2AX in hydroxyurea treated HT29 cells). It counts as cell-based. To be noted: phosphorylated H2AX Ser139 in HT29 cells, 2 mM hydroxyurea; read-out: ATR biomarker IC50. How it is done: Compounds can be screened for their ability to inhibit intracellular ATR using an immunofluorescence microscopy assay to detect phosphorylation of the ATR substrate histone H2AX in hydroxyurea treated cells. HT29 cells are plated at 14,000 cells per well in 96-well black imaging plates (BD 353219) in McCoy's 5A media (Sigma M8403) supplemented with 10% foetal bovine serum (JRH Biosciences 12003), Penicillin/Streptomycin solution diluted 1:100 (Sigma P7539), and 2 mM L-glumtamine (Sigma G7513), and allowed to adhere overnight at 37° C. in 5% CO2. Compounds are then added to the cell media from a final concentration of 25 μM in 3-fold serial dilutions and the cells are incubated at 37° C. in 5% CO2. […]
Cells are imaged for Alexa Fluor 488 and Hoechst intensity using the BD Pathway 855 Bioimager and Attovision software (BD Biosciences, Version 1.6/855) to quantify phosphorylated H2AX Ser139 and DNA staining, respectively. The percentage of phosphorylated H2AX-positive nuclei in a montage of 9 images at 20× magnification is then calculated for each well using BD Image Data Explorer software (BD Biosciences Version 2.2.15). […] The percentage of H2AX positive nuclei is finally plotted against concentration for each compound and IC50s for intracellular ATR inhibition are determined using Prism software (GraphPad Prism version 3.0cx for Macintosh, GraphPad Software, San Diego Calif., USA).

Data set [4] relates to HCT116 colorectal cancer cells. Kind of data set: Single Agent HCT116 Activity, 96 h cell viability (MTS) assay. Format: cell-based. As to conditions: Homo sapiens, HCT-116, 96 h MTS, read-out: Single agent HT116 IC50. The procedure:
Compounds can be screened for single agent activity against HCT116 colorectal cancer cells using a 96 h cell viability (MTS) assay. HCT116 are plated at 470 cells per well in 96-well polystyrene plates (Costar 3596) in 150 μl of McCoy's 5A media (Sigma M8403) supplemented with 10% foetal bovine serum (JRH Biosciences 12003), Penicillin/Streptomycin solution diluted 1:100 (Sigma P7539), and 2 mM L-glumtamine (Sigma G7513), and allowed to adhere overnight at 37° C. in 5% CO2. Compounds are then added to the cell media in 2-fold serial dilutions from a top final concentration of 10 μM as a full matrix of concentrations in a final cell volume of 200 μl, and the cells are then incubated at 37° C. in 5% CO2. After 96 h, 40 μl of MTS reagent (Promega G358a) is added to each well and the cells are incubated for 1 h at 37° C. in 5% CO2. Finally, absorbance is measured at 490 nm using a SpectraMax Plus 384 reader (Molecular Devices) and IC50 values can be calculated.

Data set [5] addresses full-length ATR (Homo sapiens (Human), UniProt Q13535). Kind of data set: ATR Inhibition Assay (radioactive-phosphate incorporation). To be noted: Ki(app); 5 nM full-length ATR, 10 μM ATP, 25° C. Format: biochemical. How it is done: Compounds were screened for their ability to inhibit ATR kinase using a radioactive-phosphate incorporation assay. Assays were carried out in a mixture of 50 mM Tris/HCl (pH 7.5), 10 mM MgCl2 and 1 mM DTT. Final substrate concentrations were 10 μM [γ-33P]ATP (3mCi 33P ATP/mmol ATP, Perkin Elmer) and 800 μM target peptide (ASELPASQPQPFSAKKK).
Assays were carried out at 25° C. in the presence of 5 nM full-length ATR. An assay stock buffer solution was prepared containing all of the reagents listed above, with the exception of ATP and the test compound of interest. 13.5 μL of the stock solution was placed in a 96 well plate followed by addition of 2 μL of DMSO stock containing serial dilutions of the test compound (typically starting from a final concentration of 15 μM with 3-fold serial dilutions) in duplicate (final DMSO concentration 7%). The plate was pre-incubated for 10 minutes at 25° C. and the reaction initiated by addition of 15 μL [γ-33P]ATP (final concentration 10 μM).
The reaction was stopped after […] by the addition of 30 μL 0.1M phosphoric acid containing 2 mM ATP. […]
After removing mean background values for all of the data points, Ki(app) data were calculated from non-linear regression analysis of the initial rate data using the Prism software package (GraphPad Prism version 3.0cx for Macintosh, GraphPad Software, San Diego Calif., USA).

Chain of full-length ATR (Q13535 whole entry): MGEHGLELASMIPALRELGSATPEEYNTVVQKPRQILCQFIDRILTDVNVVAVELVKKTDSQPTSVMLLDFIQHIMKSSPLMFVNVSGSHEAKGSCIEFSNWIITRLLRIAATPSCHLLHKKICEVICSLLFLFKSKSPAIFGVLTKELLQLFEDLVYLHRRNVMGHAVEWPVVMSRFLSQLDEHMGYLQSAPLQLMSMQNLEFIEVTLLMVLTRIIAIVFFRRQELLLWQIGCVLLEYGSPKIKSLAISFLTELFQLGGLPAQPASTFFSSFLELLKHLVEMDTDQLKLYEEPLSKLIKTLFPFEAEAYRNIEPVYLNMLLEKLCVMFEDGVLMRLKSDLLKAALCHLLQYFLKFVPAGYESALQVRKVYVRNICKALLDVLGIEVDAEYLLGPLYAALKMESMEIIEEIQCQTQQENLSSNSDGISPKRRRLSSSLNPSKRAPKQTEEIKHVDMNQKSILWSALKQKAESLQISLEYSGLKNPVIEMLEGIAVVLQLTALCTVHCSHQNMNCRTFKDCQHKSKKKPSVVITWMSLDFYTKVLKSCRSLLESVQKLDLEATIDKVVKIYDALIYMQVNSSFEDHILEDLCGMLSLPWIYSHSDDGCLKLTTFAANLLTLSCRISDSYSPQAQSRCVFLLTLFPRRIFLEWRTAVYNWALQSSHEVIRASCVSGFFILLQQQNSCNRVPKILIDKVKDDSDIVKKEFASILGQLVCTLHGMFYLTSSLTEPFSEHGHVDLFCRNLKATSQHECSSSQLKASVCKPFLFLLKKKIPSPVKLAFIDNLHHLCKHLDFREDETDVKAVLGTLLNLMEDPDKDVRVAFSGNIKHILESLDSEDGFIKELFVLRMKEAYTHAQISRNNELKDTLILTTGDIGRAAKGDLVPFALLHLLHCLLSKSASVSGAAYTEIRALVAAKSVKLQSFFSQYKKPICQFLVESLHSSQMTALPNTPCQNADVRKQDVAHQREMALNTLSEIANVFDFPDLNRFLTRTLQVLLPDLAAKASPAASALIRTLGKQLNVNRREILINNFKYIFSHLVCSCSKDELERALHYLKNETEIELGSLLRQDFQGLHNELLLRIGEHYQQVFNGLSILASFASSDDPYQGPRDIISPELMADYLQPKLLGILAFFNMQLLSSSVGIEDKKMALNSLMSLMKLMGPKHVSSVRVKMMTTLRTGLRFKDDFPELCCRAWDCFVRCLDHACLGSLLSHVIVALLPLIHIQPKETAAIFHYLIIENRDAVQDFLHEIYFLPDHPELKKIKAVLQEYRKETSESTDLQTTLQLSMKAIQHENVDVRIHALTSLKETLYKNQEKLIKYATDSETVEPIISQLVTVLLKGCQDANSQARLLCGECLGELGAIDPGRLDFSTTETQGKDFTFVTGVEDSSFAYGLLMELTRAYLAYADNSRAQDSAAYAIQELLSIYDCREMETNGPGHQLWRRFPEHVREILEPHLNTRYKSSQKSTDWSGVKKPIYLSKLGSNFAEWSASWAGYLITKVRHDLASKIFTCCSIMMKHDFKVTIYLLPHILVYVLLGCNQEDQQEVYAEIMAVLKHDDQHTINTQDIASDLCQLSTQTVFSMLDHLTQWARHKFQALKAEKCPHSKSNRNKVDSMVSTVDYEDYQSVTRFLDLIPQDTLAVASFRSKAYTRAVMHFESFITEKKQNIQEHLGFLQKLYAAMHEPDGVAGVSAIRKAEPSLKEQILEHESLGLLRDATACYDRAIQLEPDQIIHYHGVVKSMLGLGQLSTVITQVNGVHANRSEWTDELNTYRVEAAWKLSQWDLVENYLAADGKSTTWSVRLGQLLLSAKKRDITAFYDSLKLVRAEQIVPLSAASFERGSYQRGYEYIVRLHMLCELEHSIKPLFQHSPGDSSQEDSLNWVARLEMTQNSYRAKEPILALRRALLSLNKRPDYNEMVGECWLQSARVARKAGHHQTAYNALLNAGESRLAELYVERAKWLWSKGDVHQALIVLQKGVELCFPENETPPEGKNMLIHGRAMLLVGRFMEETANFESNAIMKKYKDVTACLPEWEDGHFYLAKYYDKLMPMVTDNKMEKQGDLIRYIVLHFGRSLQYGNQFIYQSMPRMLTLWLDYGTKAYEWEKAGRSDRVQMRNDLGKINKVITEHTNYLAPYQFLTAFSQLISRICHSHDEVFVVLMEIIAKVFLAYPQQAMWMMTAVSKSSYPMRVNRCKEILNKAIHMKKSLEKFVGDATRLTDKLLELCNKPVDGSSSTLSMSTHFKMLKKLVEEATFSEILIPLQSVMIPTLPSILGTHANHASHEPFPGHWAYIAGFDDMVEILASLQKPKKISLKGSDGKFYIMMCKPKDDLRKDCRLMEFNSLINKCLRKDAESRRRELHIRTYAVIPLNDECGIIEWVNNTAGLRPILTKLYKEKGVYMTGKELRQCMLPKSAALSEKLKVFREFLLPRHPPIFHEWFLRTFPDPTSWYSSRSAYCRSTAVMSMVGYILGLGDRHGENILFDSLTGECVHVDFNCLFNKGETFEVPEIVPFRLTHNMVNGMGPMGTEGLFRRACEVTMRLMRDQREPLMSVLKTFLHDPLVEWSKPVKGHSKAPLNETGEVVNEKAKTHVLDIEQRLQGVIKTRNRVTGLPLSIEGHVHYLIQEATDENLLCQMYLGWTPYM
Chain of intracellular ATR (Q13535 whole entry): as above
Chain of intracellular ATR (Q8WXE1 whole entry partner): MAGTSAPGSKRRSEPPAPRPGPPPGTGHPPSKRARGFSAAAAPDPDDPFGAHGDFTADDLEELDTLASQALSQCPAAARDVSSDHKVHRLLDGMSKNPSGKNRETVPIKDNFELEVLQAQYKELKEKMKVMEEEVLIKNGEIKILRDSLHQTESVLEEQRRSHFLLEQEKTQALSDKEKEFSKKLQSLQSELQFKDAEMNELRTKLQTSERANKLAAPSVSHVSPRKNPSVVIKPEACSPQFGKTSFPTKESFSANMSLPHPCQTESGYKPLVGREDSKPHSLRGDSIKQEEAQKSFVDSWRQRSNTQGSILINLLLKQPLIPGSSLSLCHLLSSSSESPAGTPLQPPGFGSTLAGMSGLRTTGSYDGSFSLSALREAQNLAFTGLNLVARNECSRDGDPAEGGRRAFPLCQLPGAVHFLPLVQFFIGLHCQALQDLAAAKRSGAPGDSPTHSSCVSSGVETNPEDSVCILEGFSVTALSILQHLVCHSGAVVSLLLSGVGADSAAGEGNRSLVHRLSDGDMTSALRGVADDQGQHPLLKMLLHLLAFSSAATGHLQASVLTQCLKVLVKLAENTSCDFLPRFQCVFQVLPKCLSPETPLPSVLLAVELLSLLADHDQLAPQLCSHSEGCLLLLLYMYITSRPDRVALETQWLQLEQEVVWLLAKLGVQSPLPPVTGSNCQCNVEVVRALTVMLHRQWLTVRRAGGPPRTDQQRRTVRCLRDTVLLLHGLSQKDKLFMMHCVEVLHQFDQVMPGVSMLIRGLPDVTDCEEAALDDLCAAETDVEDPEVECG

By clearance is commonly meant a measure of how efficiently the substance is removed, as volume per time. A high value points to efficient removal. Broadly, the IC50 is the concentration that gives 50% inhibition. Consider `CC(C)S(=O)(=O)c1ccc(-c2cnc(N)c(-c3cc(-c4ccc([C@@H]5COCCN5)cc4)no3)n2)cc1` [I, 5-(4-isopropylsulfonylphenyl)-3-[3-[4-[(3R)-morpholin-3-yl]phenyl]isoxazol-5-yl]pyrazin-2-amine], for which the Cisplatin sensitization in data set [1] is 117 nM. For the same molecule, the clearance in data set [2] (blood or plasma samples) came to 3.5 mL/min/kg. The Vd in data set [2] (steady state volume of distribution, read-out: VSS) is 1.1 L/kg. In addition, the IC50 is 200 nM in data set [3] and 365 nM in data set [4]. Also, in data set [5], the Ki amounted to 0.503 nM.

The values above are taken from patent US20130089624A1, “Compounds Useful as Inhibitors of ATR Kinase” (VERTEX PHARMACEUTICALS INCORPORATED, priority 2011, published 2013).
